# Measured values: patent US20100298141A1, “SUBSTITUTED PYRIDINE N-OXIDE HERBICIDES” (E. I. DU PONT DE NEMOURS AND COMPANY, priority 2007, published 2010)
# Columns and labels:
# [1] = system: giant foxtail; experiment: Test A pre-/postemergence greenhouse test; type: in vivo, Setaria faberi; conditions: for Foxtail, Giant plant response rating: 0 to 100 scale
# Method in brief: (§1)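 Untreated controls served as the reference for visual injury ratings taken about ten days after spraying. The non-phytotoxic solvent/surfactant formulation was applied preemergence to seeded loam and sand and postemergence to plants two to ten cm high.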
# [2] = system: velvetleaf; experiment: Test A pre-/postemergence greenhouse test; type: in vivo, Abutilon theophrasti; conditions: for Velvetleaf plant response rating: 0 to 100 scale
# Method in brief: as §1
# [3] = system: wheat; experiment: Test A pre-/postemergence greenhouse test; type: in vivo, Triticum aestivum; conditions: for Wheat plant response rating: 0 to 100 scale
# Method in brief: as §1
# [4] = system: corn; experiment: Test A pre-/postemergence greenhouse test; type: in vivo, Zea mays; conditions: for Corn plant response rating: 0 to 100 scale
# Method in brief: as §1
# [5] = system: downy brome; experiment: Test C pre-/postemergence test; type: in vivo, Bromus tectorum
# Method in brief: (§2)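 Seeds were planted and treated preemergence with test chemical in a non-phytotoxic solvent mixture containing surfactant. Postemergence applications of the same formulation went onto plants 2 to 18 cm tall (1- to 4-leaf stage). A dash marks no test result.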
# [6] = system: catchweed bedstraw; experiment: Test C pre-/postemergence test; type: in vivo, Galium aparine; conditions: Preemergence
# Method in brief: as §2
# [7] = system: bermudagrass; experiment: Test C pre-/postemergence test; type: in vivo, Cynodon dactylon
# Method in brief: as §2
# [8] = system: Surinam grass; experiment: Test C pre-/postemergence test; type: in vivo, Brachiaria decumbens; conditions: Preemergence
# Method in brief: as §2
# [9] = system: crabgrass; experiment: Test C pre-/postemergence test; type: in vivo, Digitaria sanguinalis; conditions: Preemergence
# Method in brief: as §2
# [10] = system: giant foxtail; experiment: Test C pre-/postemergence test; type: in vivo, Setaria faberii; conditions: Preemergence
# Method in brief: as §2
# [11] = system: johnsongrass; experiment: Test C pre-/postemergence test; type: in vivo, Sorghum halepense; conditions: Preemergence
# Method in brief: as §2
# [12] = system: lambsquarters; experiment: Test C pre-/postemergence test; type: in vivo, Chenopodium album; conditions: Preemergence
# Method in brief: as §2
# [13] = system: morningglory; experiment: Test C pre-/postemergence test; type: in vivo, Ipomoea coccinea; conditions: Preemergence
# Method in brief: as §2
# [14] = system: pigweed; experiment: Test C pre-/postemergence test; type: in vivo, Amaranthus retroflexus; conditions: Preemergence
# Method in brief: as §2
# [15] = system: soybean; experiment: Test C pre-/postemergence test; type: in vivo, Glycine max; conditions: Preemergence
# Method in brief: as §2
# [16] = system: rice; experiment: Test C flooded paddy test; type: in vivo, Oryza sativa; conditions: Flood
# Method in brief: (§3)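 Visual injury ratings against untreated controls, taken 13 to 15 days after compound was added to paddy water standing 3 cm above the soil.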
# [17] = system: barnyardgrass; experiment: Test C flooded paddy test; type: in vivo, Echinochloa crus-galli; conditions: Flood
# Method in brief: as §3
# [18] = Postemergence, 125 g ai/ha, 0 is no effect, 100 is complete control
# [19] = Postemergence, 500 g ai/ha, 0 is no effect, 100 is complete control
# [20] = Preemergence, 125 g ai/ha, 0 no effect, 100 complete control
# [21] = Preemergence, 500 g ai/ha, 0 to 100 scale where 0 is no effect and 100 is complete control
# [22] = Preemergence, 31 g ai/ha, scale 0 to 100 (0 no effect, 100 complete control)
# [23] = preemergence, 125 g ai/ha, scale 0 (no effect) to 100 (complete control)
# [24] = 31 g ai/ha, scale 0 to 100 (0 no effect, 100 complete control)
# [25] = 62 g ai/ha, scale 0 to 100, 0 no effect, 100 complete control, 13 to 15 days
# [26] = 125 g ai/ha, scale 0 to 100, 0 no effect, 100 complete control, 13 to 15 days
# [27] = 250 g ai/ha, scale 0 to 100 (0 no effect, 100 complete control)
compound,measurement,setting,value
Cn1nc(C(F)(F)F)c(C[S+]([O-])c2cc(C(C)(C)C)cc[n+]2[O-])c1OC(F)F (racemic) [Compound 24],"Foxtail, Giant plant response rating",[1]; [18],30
same,"Foxtail, Giant plant response rating",[1]; [19],70
same,"Foxtail, Giant plant response rating",[1]; [20],100
same,"Plant response rating, Foxtail, Giant",[1]; [21],100
same,Velvetleaf plant response rating,[2]; [18],40
same,Velvetleaf plant response rating,[2]; [19],60
same,Velvetleaf plant response rating,[2]; [20],70
same,"Plant response rating, Velvetleaf",[2]; [21],100
same,Wheat plant response rating,[3]; [18],0
same,Wheat plant response rating,[3]; [19],30
same,Wheat plant response rating,[3]; [20],50
same,"Plant response rating, Wheat",[3]; [21],90
same,Corn plant response rating,[4]; [18],0
same,Corn plant response rating,[4]; [19],40
same,Corn plant response rating,[4]; [20],0
same,"Plant response rating, Corn",[4]; [21],40
same,"Bromegrass, Downy plant response rating","[5]; 62 g ai/ha, Preemergence, scale 0 to 100",50
same,"Plant response rating, Bromegrass, Downy",[5]; [22],10
same,"Plant response rating (0 to 100), Bromegrass, Downy","[5]; Preemergence, 250 g ai/ha",65
same,"Bromegrass, Downy plant response rating",[5]; [23],50
same,Galium plant response rating,"[6]; 62 g ai/ha, scale 0 to 100",98
same,"Plant response rating, Galium",[6]; [24],0
same,"Plant response rating (0 to 100), Galium",[6]; 250 g ai/ha,100
same,Bermudagrass plant response rating,"[7]; 62 g ai/ha, Preemergence, scale 0 to 100 (0 no effect, 100 complete control)",85
same,"Plant response rating, Bermudagrass",[7]; [22],75
same,"Plant response rating (0 to 100), Bermudagrass","[7]; Preemergence, 250 g ai/ha",100
same,Bermudagrass plant response rating,[7]; [23],100
same,Surinam Grass plant response rating,"[8]; 62 g ai/ha, scale 0 to 100",40
same,"Plant response rating, Surinam Grass",[8]; [24],20
same,"Crabgrass, Large plant response rating","[9]; 62 g ai/ha, scale 0 to 100",100
same,"Plant response rating, Crabgrass, Large",[9]; [24],100
same,"Plant response rating (0 to 100), Crabgrass, Large",[9]; 250 g ai/ha,100
same,"Foxtail, Giant plant response rating","[10]; 62 g ai/ha, scale 0 to 100",90
same,"Plant response rating, Foxtail, Giant",[10]; [24],70
same,"Plant response rating (0 to 100), Foxtail, Giant",[10]; 250 g ai/ha,100
same,Johnsongrass plant response rating,"[11]; 62 g ai/ha, scale 0 to 100",90
same,"Plant response rating, Johnsongrass",[11]; [24],50
same,"Plant response rating (0 to 100), Johnsongrass",[11]; 250 g ai/ha,100
same,Lambsquarters plant response rating,"[12]; 62 g ai/ha, scale 0 to 100",100
same,"Plant response rating, Lambsquarters",[12]; [24],85
same,Morningglory plant response rating,"[13]; 62 g ai/ha, scale 0 to 100",80
same,"Plant response rating, Morningglory",[13]; [24],70
same,Pigweed plant response rating,"[14]; 62 g ai/ha, scale 0 to 100",100
same,"Plant response rating, Pigweed",[14]; [24],100
same,Soybean plant response rating,"[15]; 62 g ai/ha, scale 0 to 100",85
same,"Plant response rating, Soybean",[15]; [24],0
same,"Plant response rating, Rice",[16]; [24],0
same,"Plant response rating, Rice",[16]; [25],30
same,"Plant response rating, Rice",[16]; [26],45
same,"Plant response rating, Rice",[16]; [27],80
same,"Plant response rating, Barnyardgrass",[17]; [24],0
same,"Plant response rating, Barnyardgrass",[17]; [25],30
same,"Plant response rating, Barnyardgrass",[17]; [26],30
same,"Plant response rating, Barnyardgrass",[17]; [27],35
